Drawing on patent US20230092890A1, “1, 3, 4-Oxadiazole derivative compounds as histone deacetylase 6 inhibitor, and the pharmaceutical composition comprising the same” (Chong Kun Dang Pharmaceutical Corp., priority 2019, published 2023), this text covers IC50 for nine compounds.

One assay deals with T1, HDAC1 (Homo sapiens, UniProt Q13547).
T1 construct: purchased Enzolifesciences BML-AK511
Put plainly: HDAC enzyme activity inhibition (in vitro), HDAC1 Fluorimetric Drug Discovery Assay Kit. It is filed as biochemical. The settings on record: samples at 100, 1000 and 10000 nM; 37° C. 60 minutes; fluorescence Ex 390, Em 460; read-out: HDAC1 IC50. Summed up:
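Fluorimetric read-out (Ex 390, Em 460) after a 60 min 37° C enzyme reaction and 30 min 37° C developer step. Tested levels: 0.1-1000 nM (0.1, 1, 10, 100, 1000) on recombinant human HDAC6; 100, 1000 and 10000 nM on HDAC1 kit enzyme.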

The target in another assay is T2, HDAC6 human recombinant (Homo sapiens, UniProt Q9UBN7).
T2 construct: purchased Calbiochem 382180
T2 sequence (Q9UBN7 1-1215): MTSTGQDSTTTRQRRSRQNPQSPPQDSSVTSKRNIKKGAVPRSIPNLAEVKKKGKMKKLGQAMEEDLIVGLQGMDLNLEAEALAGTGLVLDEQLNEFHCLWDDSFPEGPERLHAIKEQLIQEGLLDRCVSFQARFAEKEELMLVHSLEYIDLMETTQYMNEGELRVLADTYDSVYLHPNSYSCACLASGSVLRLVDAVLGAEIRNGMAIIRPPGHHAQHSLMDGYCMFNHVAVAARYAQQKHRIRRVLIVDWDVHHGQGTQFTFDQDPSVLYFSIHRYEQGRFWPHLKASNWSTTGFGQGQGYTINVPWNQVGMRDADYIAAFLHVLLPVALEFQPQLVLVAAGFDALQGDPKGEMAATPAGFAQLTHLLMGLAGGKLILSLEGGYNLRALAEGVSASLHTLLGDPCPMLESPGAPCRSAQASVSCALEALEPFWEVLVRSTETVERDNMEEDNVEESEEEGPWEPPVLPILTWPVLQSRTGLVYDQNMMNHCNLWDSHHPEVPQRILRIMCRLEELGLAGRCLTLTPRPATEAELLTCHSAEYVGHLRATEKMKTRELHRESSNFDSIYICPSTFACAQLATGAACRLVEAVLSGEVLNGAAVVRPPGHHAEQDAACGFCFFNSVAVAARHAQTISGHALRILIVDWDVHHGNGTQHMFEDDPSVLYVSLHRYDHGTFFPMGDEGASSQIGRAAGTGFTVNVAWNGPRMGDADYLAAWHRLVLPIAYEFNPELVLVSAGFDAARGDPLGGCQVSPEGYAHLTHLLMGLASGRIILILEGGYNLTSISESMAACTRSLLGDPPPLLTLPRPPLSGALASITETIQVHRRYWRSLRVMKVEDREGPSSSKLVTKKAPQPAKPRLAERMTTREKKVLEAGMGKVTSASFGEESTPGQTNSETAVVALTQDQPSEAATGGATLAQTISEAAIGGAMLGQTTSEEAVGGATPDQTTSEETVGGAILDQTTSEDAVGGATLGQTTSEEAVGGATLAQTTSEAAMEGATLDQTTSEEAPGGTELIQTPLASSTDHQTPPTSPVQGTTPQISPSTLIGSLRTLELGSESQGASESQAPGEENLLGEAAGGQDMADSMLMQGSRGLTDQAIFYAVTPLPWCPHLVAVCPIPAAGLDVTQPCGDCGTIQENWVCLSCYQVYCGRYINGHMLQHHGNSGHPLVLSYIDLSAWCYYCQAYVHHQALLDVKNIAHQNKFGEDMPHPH
Put plainly: HDAC enzyme activity inhibition (in vitro), HDAC6 assay. It is filed as biochemical. The settings on record: samples at 0.1, 1, 10, 100 and 1000 nM; 37° C. 60 minutes; fluorescence Ex 390, Em 460; read-out: HDAC6 IC50. The method in brief: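 Fluorescence (Ex 390, Em 460) read after a 37° C, 60 min enzyme reaction and a further 30 min developer step at 37° C. Uses recombinant human HDAC6; HDAC1 arm dosed at 100, 1000, 10000 nM.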

T1 sequence (Q13547 whole entry): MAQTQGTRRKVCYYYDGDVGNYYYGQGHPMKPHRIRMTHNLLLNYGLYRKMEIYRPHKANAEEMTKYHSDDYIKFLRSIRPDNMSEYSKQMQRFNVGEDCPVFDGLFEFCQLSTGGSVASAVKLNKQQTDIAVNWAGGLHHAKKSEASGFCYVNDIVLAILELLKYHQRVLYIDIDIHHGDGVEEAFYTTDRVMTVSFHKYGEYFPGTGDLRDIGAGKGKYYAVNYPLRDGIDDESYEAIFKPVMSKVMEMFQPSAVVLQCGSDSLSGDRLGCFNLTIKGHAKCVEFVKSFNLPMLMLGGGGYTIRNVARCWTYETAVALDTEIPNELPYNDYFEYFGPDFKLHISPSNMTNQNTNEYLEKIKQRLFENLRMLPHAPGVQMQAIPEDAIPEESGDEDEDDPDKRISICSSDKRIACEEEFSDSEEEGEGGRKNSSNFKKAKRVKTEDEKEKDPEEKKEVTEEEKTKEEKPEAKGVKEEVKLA

One may read the IC50 as the concentration needed to halve the response being measured. Turning to `COc1ccc(-c2ccc3c(c2)n(C2CCN(C)CC2)c(=O)n3Cc2ccc(-c3nnc(C(F)F)o3)cc2F)cn1` [Compound 164, 1-(4-(5-(difluoromethyl)-1,3,4-oxadiazole-2-yl)-2-fluorobenzyl)-5-(6-methoxypyridine-3-yl)-3-(1-methylpiperidine-4-yl)-1,3-dihydro-2H-benzo[d]imidazole-2-one], the IC50 was over 10 µM at HDAC1 and 0.061 µM at HDAC6 human recombinant.

For the compound `Cn1c(=O)n(Cc2ccc(-c3nnc(C(F)F)o3)cn2)c2cc(F)c(-c3cccnc3)cc21` [Compound 165, 1-((5-(5-(difluoromethyl)-1,3,4-oxadiazole-2-yl)pyridine-2-yl)methyl)-6-fluoro-3-methy 1-5-(pyridine-3-yl)-1,3-dihydro-2H-benzo[d]imidazole-2-one], the IC50 on HDAC1 was over 10 µM; on HDAC6 human recombinant, 0.01 µM.

In the case of `Cn1c(=O)n(Cc2ccc(-c3nnc(C(F)F)o3)cn2)c2cc(F)c(-c3cccc(F)c3)cc21` [Compound 166, 1-((5-(5-(difluoromethyl)-1,3,4-oxadiazole-2-yl)pyridine-2-yl)methyl)-6-fluoro-5-(3-fluorophenyl)-3-methyl-1,3-dihydro-2H-benzo[d]imidazole-2-one], the IC50 at HDAC1 was over 10 µM; at HDAC6 human recombinant, 0.034 µM.

As for `Cn1c(=O)n(Cc2ccc(-c3nnc(C(F)F)o3)cn2)c2cc(F)c(-c3ccc(C(F)(F)F)cc3)cc21` [Compound 167, 1-((5-(5-(difluoromethyl)-1,3,4-oxadiazole-2-yl)pyridine-2-yl)methyl)-6-fluoro-3-methy 1-5-(4-(trifluoromethyl)phenyl)-1,3-dihydro-2H-benzo[d]imidazole-2-one], the IC50 at HDAC1 is over 10 µM; on HDAC6 human recombinant it was 0.138 µM.

In the case of `Cn1c(=O)n(Cc2ccc(-c3nnc(C(F)F)o3)cn2)c2cc(F)c(-c3ccoc3)cc21` [Compound 168, 1-((5-(5-(difluoromethyl)-1,3,4-oxadiazole-2-yl)pyridine-2-yl)methyl)-6-fluoro-5-(furan-3-yl)-3-methyl-1,3-dihydro-2H-benzo[d]imidazole-2-one], the IC50 was over 10 µM on HDAC1 and 0.04 µM on HDAC6 human recombinant.

As for `Cn1c(=O)n(Cc2ccc(-c3nnc(C(F)F)o3)cc2F)c2cc(F)c(-c3cccnc3)cc21` [Compound 169, 1-(4-(5-(difluoromethyl)-1,3,4-oxadiazole-2-yl)-2-fluorobenzyl)-6-fluoro-3-methyl-5-(pyridine-3-yl)-1,3-dihydro-2H-benzo[d]imidazole-2-one], the values for the IC50 on HDAC1 and on HDAC6 human recombinant were over 10 µM and 0.021 µM, respectively.

With `Cc1ccc(-c2cc3c(cc2F)n(Cc2ccc(-c4nnc(C(F)F)o4)cc2F)c(=O)n3C)o1` [Compound 170, 1-(4-(5-(difluoromethyl)-1,3,4-oxadiazole-2-yl)-2-fluorobenzyl)-6-fluoro-3-methyl-5-(5-methylfuran-2-yl)-1,3-dihydro-2H-benzo[d]imidazole-2-one], the IC50 was over 10 µM at HDAC1 and 0.211 µM at HDAC6 human recombinant.

As for `CC(=O)N1CCC(n2c(=O)n(Cc3ccc(-c4nnc(C(F)F)o4)cn3)c3c(F)cccc32)CC1` [Compound 171, 1-(1-acetylpiperidine-4-yl)-3-((5-(5-(difluoromethyl)-1,3,4-oxadiazole-2-yl)pyridine-2-yl)methyl)-4-fluoro-1,3-dihydro-2H-benzo[d]imidazole-2-one], the results for the IC50 at HDAC1 and at HDAC6 human recombinant were over 10 µM and 0.04 µM, respectively.

Regarding `CC(=O)N1CCC(n2c(=O)n(Cc3ccc(-c4nnc(C(F)F)o4)cc3)c3cc(F)ccc32)CC1` [Compound 172, 1-(1-acetylpiperidine-4-yl)-3-(4-(5-(difluoromethyl)-1,3,4-oxadiazole-2-yl)benzyl)-5-fluoro-1,3-dihydro-2H-benzo[d]imidazole-2-one], the figures for the IC50 on HDAC1 and at HDAC6 human recombinant were over 10 µM and 0.034 µM, respectively.
